Here are results for 32 molecules from a melting point compilation (Tetko et al.; mined from patent text by program, amines drawn as free bases though some values may be those of a salt).

With `O=C1SC(Cc2ccc(OCCON=Cc3cnc4ccccc4c3)cc2)C(=O)N1C(c1ccccc1)(c1ccccc1)c1ccccc1` (configuration not stated), the melting point – broadly, the temperature of the solid-liquid transition – lay within 127 to 130 °C.
`COC(=O)C(C)Oc1cccc2cccnc12` (configuration not stated) came in with a melting point of 70 to 72 °C.
The molecule `CC(=O)N1CC(CCN2CCC(c3c[nH]c4cc(Cl)ccc34)CC2)c2ccccc21` (configuration not stated) gave a melting point of 188 to 190 °C.
For `COC(=O)c1ccc(C)c(-n2c(C)cc(OCc3ccccc3CNC(=O)Nc3cc(C(C)(C)C)nn3-c3ccc(O)cc3)c(Cl)c2=O)c1`, the melting point fell in the range of 199 to 200 °C.
`N#CCC(c1ccccn1)c1cc(N)cc2c1OCC2` (configuration not stated) registered a melting point of 143 to 144 °C.
The result for `O=C1NC(=O)c2cc(Nc3ccc(OCc4ccccc4)cc3)c(Nc3ccc(OCc4ccccc4)cc3)cc21` reads 187 to 189 °C.
`CC1CCCCN1c1cc(F)cc(C(=O)Nc2ccc(OCCN3CCOCC3)c3ccccc23)c1` (configuration not stated) came in with a melting point of 75 to 78 °C.
Turning to `O=S1(=O)NCN(C2CC2)c2c1ccc(F)c2F`, the melting point lay in the range of 160 to 162 °C.
For `O=C(Oc1ccc(S(=O)(=O)Nc2ccccc2)cc1)c1ccc(CCBr)cc1`, the melting point was 156 to 157 °C.
With `Nc1ccc(O)c2c1C(=O)c1c(N)ccc(O)c1C2=O`, the melting point worked out at 290 °C.
Under `Cc1sc(-c2ccccc2)nc1COc1ccc(COc2ncccc2C=O)cc1` stands 101 to 102 °C; under `c1ccc(-c2ccc3nc(C4(c5ccc6nccnc6c5)N=c5ccccc5=N4)[nH]c3c2)cc1`, 235 °C; under `Cc1ccc(Oc2nc3ccccc3o2)c(=S)n1C`, 245 to 247 °C.
`COc1cc(N)nc(N2CCOCC2)n1` yielded a melting point of 162 to 164 °C.
Molecule `CC(C)(C)C(=O)Nc1nc(O)c2c(C#C[Si](C)(C)C)c[nH]c2n1` showed a melting point of over 300 °C.
On to `CCCN1CC[C@@H]2CC(=O)c3cc(F)ccc3[C@@H]2C1` (relative stereo), for which the melting point was over 220 °C.
With `CCn1c(=O)n(OCc2ccccc2)c(=O)c2cc(F)c(N3CCN(C)CC3)nc21`, the melting point was in the range of 178 to 179 °C.
Under `COc1cc(COc2nn(-c3ccccc3)cc2/C=C/c2csc(C(C)C)n2)ccc1OCc1nc(-c2ccc(CC(=O)O)cc2)oc1C` stands 107 to 109 °C; under `O=C(O)c1ccc(CC2COc3ccc(OCc4ccc5ccccc5n4)cc3C2O)cc1` (configuration not stated), 199 to 201 °C.
`CCOC(=O)C(=Cc1c(Cl)n(Cc2ccc(Cl)cc2)c2ccccc12)C(=O)OCC`: the melting point is 98 to 99 °C.
For `Cc1ccc(S(=O)(=O)OCCN2CN(C)C(=S)N(c3ccc(C)cc3C)C2)cc1`, the melting point was in the range of 82 to 85 °C.
Under `COC(=O)C(O)=CC(=O)c1cn(Cc2ccccc2)cc(Cc2ccccc2)c1=O` stands 148 to 150 °C; under `CCCCCCc1ccc(C(=O)CCCCC(=O)O)cc1`, 77 to 79 °C.
`COC(=O)c1cnc(Nc2cc(N3CCN(CCO)CC3)nc(C)n2)s1` registered a melting point of 242 °C.
Under `O=C(Nc1ccc2[nH]ccc2c1)C(=O)N1CCC(Cc2ccc(F)cc2)CC1` stands 80 to 82 °C; under `Cc1cc(OCCN(C)C)ccc1NC(=O)c1ccc(N2CCNCC2)cc1`, 139 to 141 °C.
In the case of `N#Cc1ccccc1-c1nc2ncccc2o1`, the melting point is 166 to 167 °C.
Regarding `CCS(=O)(=O)CC=Cc1ccccc1`, the melting point turned out to be 100 °C.
In turn, `C[C@@H]([C@@H]1CCC(=O)O1)N(Cc1ccccc1)Cc1ccccc1` yielded a melting point of 61 to 62 °C.
Regarding `O=C(NC1CCN(CCC2CCOc3ccccc32)CC1)c1cc2ccccc2o1` (configuration not stated), the melting point lay in the range of 146 to 148 °C.
In the case of `COC(=O)C(C(=O)OC)c1ccc([N+](=O)[O-])cc1C(=O)O`, the melting point lay in the range of 163 to 164 °C.
The molecule `COc1ccc2c(c1)C(=O)c1c-2c(N2CCN(C(=O)CCNCCN(C)C)CC2)nc2ccccc12` had a melting point of 161 to 162 °C.
